Results from the NIST ThermoML archive (doi:10.1021/je400158p).
± gives the expanded uncertainty stated by the source.

Assay: excess molar enthalpy (molar enthalpy of mixing); xn = mol fraction of the nth substance listed
Details: 298.15 K, 101 kPa, Liquid, Calvet calorimetry

SMILES | excess molar enthalpy (x1 = 0.1) | excess molar enthalpy (x1 = 0.2) | excess molar enthalpy (x1 = 0.4) | excess molar enthalpy (x1 = 0.5) | excess molar enthalpy (x1 = 0.7) | excess molar enthalpy (x1 = 0.401) | excess molar enthalpy (x1 = 0.501) | excess molar enthalpy (x1 = 0.804)
CCn1cc[n+](C)c1.COP(=O)([O-])OC [1-ethyl-3-methylimidazolium dimethylphosphate] + O | -0.881 ± 0.00813 kcal/mol | -1.3 ± 0.0105 kcal/mol | -1.463 ± 0.0115 kcal/mol | -1.381 ± 0.011 kcal/mol | -1.008 ± 0.00813 kcal/mol | – | – | –
OCCOCCO [diethylene glycol] + O | – | -0.291 ± 0.00335 kcal/mol | – | – | – | -0.291 ± 0.00335 kcal/mol | -0.275 ± 0.00311 kcal/mol | -0.111 ± 0.00263 kcal/mol
CCn1cc[n+](C)c1.COP(=O)([O-])OC [1-ethyl-3-methylimidazolium dimethylphosphate] + CO | – | -0.6728 ± 0.0055 kcal/mol | -0.8537 ± 0.00669 kcal/mol | – | -0.5566 ± 0.00478 kcal/mol | – | – | –
CCn1cc[n+](C)c1.COP(=O)([O-])OC [1-ethyl-3-methylimidazolium dimethylphosphate] + CCO | -0.311 ± 0.00406 kcal/mol | -0.5184 ± 0.00478 kcal/mol | -0.6726 ± 0.0055 kcal/mol | – | -0.4333 ± 0.00406 kcal/mol | – | – | –
